# Patent publication US6042841A, “Cosmetic method of treating skin” (Unilever Home & Personal Care USA Division of Conopco, Inc., priority 1998, dated 2000)
# Legend:
# Assay type in all cases: cell-based
# decorin = experiment: Dot blot assay for decorin synthesis in human dermal fibroblasts
# Method: Primary human foreskin fibroblasts at passage 2 (P2) were seeded into 12-well plates at 10000 cells/cm^2 and maintained for 24 hours in an atmosphere of 5% carbon dioxide and 4% oxygen in Dulbeccos Modified Eagles Medium (DMEM) supplemented with 10% foetal calf serum. After this time the cells were washed with serum free DMEM and then incubated in fresh serum free DMEM for a further 60 hours. The fibroblast monolayers were then washed again with serum free DMEM. Test reagents and vehicle controls were added to the cells in triplicate in a final volume of 0.4 ml/well fresh serum free DMEM and incubated for a further 24 hours. This fibroblast conditioned medium was either analysed immediately or snap frozen in liquid nitrogen and stored at -70° C. for future analysis. The cells were then counted and data from the dot-blot analysis subsequently standardised to cell number.
# Samples of conditioned medium from dermal fibroblasts treated with vehicle (as a control) or test reagents were supplemented with 20 mM dithiothreitol (1:10 dilution of 200 mM stock solution) and 0.1% sodium dodecylsulphate (1:100 dilution of 10% stock solution), mixed well and then incubated at 75° C. for 2 minutes. A standard for the assay was generated by serial dilution of neat fibroblast conditioned medium from fibroblasts seeded at 10000 cells/cm^2 in a 175 cm^2 flask and maintained in serum free DMEM as described above. Assay samples were subsequently applied in triplicate to a prewetted sheet of Immobilon-P transfer membrane using the 96-well Bio-Dot Apparatus from Bio-Rad as described in the manufacturers guidelines. Approximately 200 μl of medium was applied per well. […] Dot intensity was assessed by computer-assisted image analysis using the quantification tools in ImageQuant™, standardised to cell number and the effects of various test reagents on decorin and procollagen-I synthesis were determined relative to a vehicle treated control value of 100 arbitrary units.
# PGE2 = experiment: Keratinocyte PGE2 assay (basal release); conditions: 0.1 and 1 μM; 1 way ANOVA, p<0.05
# Method: This was then replaced with KGM without hydrocortisone for 24-48 hours. No petroselinic acid was added to the control cells. […] At the end of the incubation the medium was harvested and assayed for the basal release of the pro-inflammatory PGE2 by enzyme-linked immuno assay using a commercial PGE2 kit (Amersham, Buckinghamshire, England).
# The anti-inflammatory potential of the test compounds were assessed by the ability of the compounds to reduce the basal levels of secreted PGE2 as compared to the control. […]
# keratinocytes = experiment: Keratinocyte SDS viability assay (Neutral Red); conditions: vs 2 μg/ml SDS alone; 1 way ANOVA, p<0.05
# Method: After incubating for 24 hours the medium was removed and the viability determined by the Neutral Red method.
# ICAM = experiment: ICAM-1 assay, PMA-induced ICAM production in human skin fibroblasts; conditions: for ICAM: N 4, p < 0.001 vs PMA-treated
# Method: Intracellular adhesion molecules (ICAM) and PEG2 production by human skin fibroblasts can be induced by the inflammatory stimulus PMA (phorbal myristate acetate). PMA represents an external stressor which induces oxidative stress and inflammatory responses in cells. This model is used to model inflammation in vivo.
# Primary human foreskin fibroblasts at passage 2 (P2) were seeded into 96-well plates at 10000 cells/well and maintained for 24 hours in an atmosphere of 5% carbon dioxide in Dulbeccos Modified Eagles Medium (DMEM) supplemented with 10% foetal calf serum. […] Phorbal myristate acetate (PMA) (Sigma) was added to the media and the cells incubated for a further 24 hours. […] The fibroblasts/media were then analysed as described below immediately or snap frozen in liquid nitrogen and stored at -70° C. for future analysis. The cells were then counted and data from the dot-blot analysis subsequently standardised to cell number.
# ICAM-1 assay: Media were discarded and cells washed with Dulbecco PBS. To the washed cells, 150 μl 0.1% Triton X-100 (Sigma) was added for 3 minutes to extract ICAM from cell membrane. The extracts were transferred to Eppendoff centrifuge tubes and centrifuged at 1000 g for 2 min to remove cell debris. A volume of 100 μl supernatant was used for ICAM assay. The soluble ICAM-1 was assessed with commercially available immunoenzymometric assay kit (R&D Systems). Concentrations of ICAM-1 in the samples were determined based on parallelly running standard curve.
compound,measurement,setting,value
"CCCCCCCCCCC/C=C\CCCCC(=O)O [Petroselinic Acid, petroselinic acid]",decorin synthesis (in words),decorin; compared to the control,significantly upregulates
same,magnitude of upregulation of decorin synthesis vs retinoic acid (in words),decorin; petroselinic acid 10 μM vs retinoic acid 1 μm (so in the source),"exceeds that of the bench-mark anti-aging dermal repair active, retinoic acid"
same,release of PGE2 from unstimulated keratinocytes (in words),PGE2,significantly (p<0.05) reduced
same,Keratinocyte viability vs SDS alone (in words),keratinocytes,significantly increased viability
same,ICAM,ICAM; PMA + PA (0.1 uM),8.64 ± 0.89 ng/mL
same,ICAM,ICAM; PMA + PA (1 uM),7.71 ± 0.66 ng/mL
same,ICAM,ICAM; PMA + PA (10 uM),7.39 ± 0.14 ng/mL
same,ICAM,ICAM; PMA + PA (100 uM),6.68 ± 1.35 ng/mL
same,production of ICAM (in words),ICAM; PMA-challenged,decreases the production
